Data taken from ChEMBL document CHEMBL1201862, “PubChem BioAssay data set” (2004).
“And” between values parts separate entries of the source, which are not always exact repeats. Identical values can stand only once.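 Five compound concentrations were applied to cells in 96-well plates for 48 hours; endpoints were derived by simple linear interpolation of the resulting dose-response curve. GI50 = concentration required for 50% inhibition of growth.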 The source made the active and inactive calls. No stated cut-off is given here; in the data, active = GI50 up to about 1.1 µM and inactive = higher.

Columns and labels:
Test in all cases: growth of human tumour cells (NCI), 48 h
786-0 = test system: 786-0
CAKI-1 = test system: CAKI-1
HCC 2998 = test system: HCC 2998
HCT-116 = test system: HCT-116
HL-60 = test system: HL-60
IGROV-1 = test system: IGROV-1
MDA-MB-231 = test system: MDA-MB-231
MDA-MB-435 = test system: MDA-MB-435
NCI-H522 = test system: NCI-H522
OVCAR-4 = test system: OVCAR-4
RPMI-8226 = test system: RPMI-8226
SF-295 = test system: SF-295
SK-OV-3 = test system: SK-OV-3
T47D = test system: T47D
TK-10 = test system: TK-10
UACC-62 = test system: UACC-62
CCRF-CEM = test system: CCRF-CEM
KM12 = test system: KM12
SNB-75 = test system: SNB-75

Measured: GI50

C=CC[C@@]12CCC(=O)C=C1CCCC2=O
inactive: 786-0 > 100 µM | CAKI-1 > 100 µM | HCC 2998 > 100 µM | HCT-116 > 100 µM | HL-60 > 100 µM | IGROV-1 > 100 µM | MDA-MB-231 > 100 µM | MDA-MB-435 > 100 µM | NCI-H522 > 100 µM | OVCAR-4 > 100 µM | RPMI-8226 > 100 µM | SF-295 > 100 µM | SK-OV-3 > 100 µM | T47D > 100 µM | TK-10 > 100 µM | UACC-62 > 100 µM

O=c1c(-c2ccc(Cl)cc2)nnc2n(Cc3ccccc3)c3ccccc3n12
inactive: 786-0 14.9 µM | CAKI-1 16.4 µM | CCRF-CEM > 100 µM | HCC 2998 > 100 µM | HCT-116 50.5 µM | HL-60 50 µM | IGROV-1 18.7 µM | KM12 28.9 µM | MDA-MB-231 20 µM | MDA-MB-435 4.28 µM | NCI-H522 16.8 µM | OVCAR-4 5.94 µM | SF-295 19.1 µM | SNB-75 13 µM | T47D 67.9 µM | TK-10 20.6 µM

NCCOCC(N)C(=O)O (configuration not stated)
inactive: 786-0 > 100 µM | CAKI-1 > 100 µM | CCRF-CEM > 100 µM and > 72.8 µM | HCC 2998 > 100 µM | HCT-116 > 100 µM | HL-60 > 100 µM | IGROV-1 > 100 µM | KM12 > 100 µM | MDA-MB-231 > 100 µM | MDA-MB-435 > 100 µM | NCI-H522 > 100 µM | OVCAR-4 > 100 µM | SF-295 > 100 µM | SK-OV-3 > 100 µM | SNB-75 > 100 µM | T47D > 100 µM | TK-10 > 100 µM | UACC-62 > 100 µM

CC(C)(C)OC(=O)N1C(OP(=O)(Oc2ccccc2)Oc2ccccc2)=COc2cccnc21
inactive: 786-0 94.6 µM | CAKI-1 40.3 µM | HCC 2998 42.1 µM | HCT-116 51.2 µM | HL-60 16.2 µM | IGROV-1 42.6 µM | KM12 31.4 µM | MDA-MB-231 71 µM | MDA-MB-435 39.4 µM | NCI-H522 47 µM | OVCAR-4 45.8 µM | RPMI-8226 21.8 µM | SF-295 34.7 µM | SK-OV-3 98.2 µM | SNB-75 33.3 µM | T47D 23 µM | TK-10 31 µM | UACC-62 64.6 µM

O=C(O)Cn1ncn(NC(=O)Cc2ccccc2)c1=S
inactive: 786-0 > 10 µM | CAKI-1 > 10 µM | CCRF-CEM > 10 µM | HCC 2998 > 10 µM | HCT-116 > 10 µM | IGROV-1 > 10 µM | KM12 > 10 µM | MDA-MB-231 > 10 µM | MDA-MB-435 > 10 µM | NCI-H522 > 10 µM | OVCAR-4 > 10 µM | RPMI-8226 > 10 µM | SF-295 > 10 µM | SK-OV-3 > 10 µM | SNB-75 > 10 µM | T47D > 10 µM | TK-10 > 10 µM | UACC-62 > 10 µM

COC(=O)C1=C(CCCCO[Si](C)(C)C(C)(C)C)NC(=O)N2[C@H](CCOCc3ccccc3)CC[C@@H]12
inactive: 786-0 44.7 µM | CAKI-1 34 µM | HCC 2998 > 100 µM | HCT-116 24 µM | KM12 49.5 µM | MDA-MB-231 44.9 µM | MDA-MB-435 39.2 µM | NCI-H522 15.5 µM | OVCAR-4 > 100 µM | RPMI-8226 49.4 µM | SF-295 33.1 µM | SK-OV-3 > 100 µM | SNB-75 43.7 µM | T47D 35.4 µM | TK-10 > 100 µM | UACC-62 > 100 µM

CC1OC(OC2C(OC(=O)[C@]34CCC(C)(C)C[C@H]3C3=CC[C@@H]5[C@@]6(C)CC[C@H](OC7OC(CO)C(O)C(O)C7OC7OC(CO)C(O)C(O)C7O)C(C)(C)[C@@H]6CC[C@@]5(C)[C@]3(C)CC4)OCC(O)C2O)C(O)C(O)C1OC1OCC(O)C(OC2OCC(O)C(O)C2O)C1O (some centres not stated)
inactive: 786-0 6.67 µM and 5.46 µM | CAKI-1 3.6 µM and 4 µM | CCRF-CEM 11.3 µM and 13.2 µM | HCC 2998 2 µM and 1.76 µM | HCT-116 5.04 µM and 3.85 µM | IGROV-1 11.9 µM and 8.38 µM | KM12 3.74 µM and 3.59 µM | MDA-MB-231 3.14 µM and 2.84 µM | MDA-MB-435 1.67 µM and 1.94 µM | NCI-H522 2.65 µM and 2.49 µM | OVCAR-4 7.19 µM and 5.41 µM | RPMI-8226 3.98 µM and 4.43 µM | SF-295 3.44 µM and 3.78 µM | SK-OV-3 12.6 µM and 13.1 µM | SNB-75 7.93 µM and 5.86 µM | T47D 4.13 µM and 6.3 µM | TK-10 8.41 µM and 8.63 µM | UACC-62 2.21 µM and 2.5 µM

CC(C)=CCC(O)[C@](C)(O)[C@H]1[C@H](O)C[C@@]2(C)[C@@H]3CCc4cc(O)c(OC5OC(CO)C(O)C(O)C5O)cc4C3(C)C(=O)C[C@]12C (some centres not stated)
inactive: 786-0 > 100 µM | CAKI-1 > 100 µM | CCRF-CEM > 100 µM | HCC 2998 > 100 µM | HCT-116 > 100 µM | IGROV-1 89.3 µM | KM12 > 100 µM | MDA-MB-231 > 100 µM | MDA-MB-435 > 100 µM | NCI-H522 > 100 µM | OVCAR-4 > 100 µM | SF-295 > 100 µM | SK-OV-3 > 100 µM | SNB-75 > 100 µM | T47D > 100 µM | TK-10 > 100 µM | UACC-62 > 100 µM

CC1(C)CCC[C@]2(C)[C@@H]1CC[C@@]13O[C@@H]1C1=C(CO)C(=O)O[C@]14O[C@@H]4[C@@H]23
inactive: 786-0 15.2 µM | CAKI-1 12.8 µM | HCC 2998 19.2 µM | HCT-116 12.4 µM | IGROV-1 13.3 µM | KM12 18 µM | MDA-MB-231 15.7 µM | MDA-MB-435 10.4 µM | NCI-H522 7.55 µM | OVCAR-4 8.24 µM | RPMI-8226 > 100 µM | SF-295 16.1 µM | SK-OV-3 16.7 µM | SNB-75 15.2 µM | T47D 22 µM | TK-10 17.6 µM | UACC-62 10.9 µM

CC1CSc2nc3nc(S)nc-3c(O)n2C1 (configuration not stated)
inactive: 786-0 > 100 µM | CAKI-1 > 100 µM | CCRF-CEM > 100 µM | HCC 2998 > 100 µM | HCT-116 > 100 µM | HL-60 > 100 µM | IGROV-1 > 100 µM | KM12 > 100 µM | MDA-MB-231 > 100 µM | MDA-MB-435 > 100 µM | OVCAR-4 > 100 µM | RPMI-8226 > 100 µM | SF-295 > 100 µM | SK-OV-3 > 100 µM | SNB-75 > 100 µM | T47D > 100 µM | TK-10 > 100 µM | UACC-62 > 100 µM
